# According to ChEMBL document CHEMBL1125067, “Synthesis and structural requirements of N-substituted norapomorphines for affinity and activity at dopamine D-1, D-2, and agonist receptor sites in rat brain” (J Med Chem, 1990):
# What was measured:
# [1] = system: Rattus norvegicus; assay: Stereotyped behavior was tested in rats at (ip) administration of 3 mg/kg (N=6).scores were compared as the percent of that obtained with apomorphine; format: functional
# [2] = target: D(2) dopamine receptor (Rattus norvegicus, UniProt P61169)
# Description: Dopamine receptor D2 affinity was tested in vitro against corpus striatum from rat brain membranes
# [3] = target: D(1A) dopamine receptor (Rattus norvegicus, UniProt P18901)
# Chain of D(1A) dopamine receptor (P18901 whole entry): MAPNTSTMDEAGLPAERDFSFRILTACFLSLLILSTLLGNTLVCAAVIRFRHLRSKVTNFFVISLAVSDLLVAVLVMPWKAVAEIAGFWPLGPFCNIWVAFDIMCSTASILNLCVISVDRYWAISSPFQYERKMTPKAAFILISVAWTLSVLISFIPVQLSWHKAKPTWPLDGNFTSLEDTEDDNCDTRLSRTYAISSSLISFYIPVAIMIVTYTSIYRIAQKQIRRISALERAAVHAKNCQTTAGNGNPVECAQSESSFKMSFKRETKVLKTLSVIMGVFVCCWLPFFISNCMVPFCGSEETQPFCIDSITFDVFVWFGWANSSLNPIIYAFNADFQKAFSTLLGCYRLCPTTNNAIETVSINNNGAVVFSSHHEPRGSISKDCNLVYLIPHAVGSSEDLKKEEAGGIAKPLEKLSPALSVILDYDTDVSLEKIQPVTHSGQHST
# Description: Dopamine receptor D1 affinity was tested in vitro against corpus striatum from rat brain membranes
# Chain of D(2) dopamine receptor (P61169 whole entry): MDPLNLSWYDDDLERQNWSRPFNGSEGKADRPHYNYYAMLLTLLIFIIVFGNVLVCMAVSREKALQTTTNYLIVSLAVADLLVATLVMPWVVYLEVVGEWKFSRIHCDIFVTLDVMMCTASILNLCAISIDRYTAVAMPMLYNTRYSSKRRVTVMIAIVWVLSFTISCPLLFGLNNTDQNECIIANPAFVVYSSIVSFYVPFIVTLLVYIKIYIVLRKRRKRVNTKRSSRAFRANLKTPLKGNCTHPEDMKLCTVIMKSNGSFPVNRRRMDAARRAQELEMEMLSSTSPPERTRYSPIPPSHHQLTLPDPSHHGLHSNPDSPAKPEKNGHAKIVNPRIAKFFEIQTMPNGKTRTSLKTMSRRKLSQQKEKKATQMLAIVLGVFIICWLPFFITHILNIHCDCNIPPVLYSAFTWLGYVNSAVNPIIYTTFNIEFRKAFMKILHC
Compound,Stereotypy score [1],Ki [2],Ki [3]
CCCN1CCc2cccc3c2[C@H]1Cc1ccc(O)c(O)c1-3.Cl,99,,
CC(C)CN1CCc2cccc3c2[C@H]1Cc1ccc(O)c(O)c1-3.Cl,3,490 nM,> 10000 nM
Cl.Oc1ccc2c(c1O)-c1cccc3c1[C@@H](C2)NCC3,26,,390 nM
Cl.Oc1ccc2c(c1O)-c1cccc3c1[C@@H](C2)N(CC1CC1)CC3,106,0.43 nM,730 nM
Br.C=CCN1CCc2cccc3c2[C@H]1Cc1ccc(O)c(O)c1-3,86,,615 nM
CCN1CCc2cccc3c2[C@H]1Cc1ccc(O)c(O)c1-3.Cl,97,,124 nM
Cl.OCCN1CCc2cccc3c2[C@H]1Cc1ccc(O)c(O)c1-3,0,,> 10000 nM
Cl.Oc1ccc2c(c1O)-c1cccc3c1[C@@H](C2)N(CC(F)(F)F)CC3,2,,> 50000 nM
CC(C)N1CCc2cccc3c2[C@H]1Cc1ccc(O)c(O)c1-3.Cl,0,,> 10000 nM
Oc1ccc2c(c1O)-c1cccc3c1[C@@H](C2)N(CC(F)(F)C(F)(F)F)CC3,,,> 50000 nM
CN1CCc2cccc3c2[C@H]1Cc1ccc(O)c(O)c1-3.CN1CCc2cccc3c2[C@H]1Cc1ccc(O)c(O)c1-3.Cl.Cl.O [APOMORPHINE HYDROCHLORIDE],100,,
